The values that follow come from patent publication US7022709B2, “Selective PDE 2 inhibitors as pharmaceuticals for improving perception” (priority 2000, dated 2006).

The IC50 is the midpoint of a concentration-inhibition curve.

For test [1], the target named is T1, PDE2 (Homo sapiens, UniProt O00408). The following applies: cited from earlier work.
For a further test, the target named is adenosine deaminase (Homo sapiens, UniProt P00813). The following applies: read-out: IC50 adenosine deaminase; cited from earlier work.
Another test deals with PDE1. Briefly: PDE inhibition, PDE1 (Ca-calmodulin-dependent). In kind it is biochemical. The following applies: bovine PDE1. An excerpt:
(§1) The PDE 2 which can be stimulated by cGMP is isolated from bovine myocardium. The PDE 1 which can be stimulated by Ca^2+ calmodulin is isolated from porcine aorta, porcine brain or, preferably, from bovine aorta. The cGMP-specific PDE 5 is obtained from porcine small intestine, porcine aorta, human blood platelets and, preferably, from bovine aorta. Purification takes place by anion exchange chromatography on MonoQ^R Pharmacia essential by the method of Hoey, M; Houslay, M. D., Biochem. Pharmacol. 1990, 40, 193–202 and Lugman et al. Biochem. Pharmacol. 1986, 35, 1743–1751.
(§2) The enzymatic activity is determined in an assay mixture of 100 μl in 20 mM Tris/HCl buffer pH 7.5 which contains 5 mM MgCl2, 0.1 mg/ml bovine serum albumin and 800 Bq of either [^3H]-cAMP or [^3H]-cGMP. […] 100 μl of the reaction mixture are separated by HPLC, and the cleavage products are determined quantitatively on line using a flow scintillation counter. The substance concentration at which the reaction rate is reduced by 50% is measured. […]
(§3) The activity of the test substances on human recombinant PDE2, PDE3B, PDE4B and PDE7B is determined using the [^3H]cAMP scintillation proximity assay (SPA) kit (TRKQ7090) from Amersham International (Little Chalfont, England) and on PDE1 and PDE5 using the [^3H]cGMP scintillation proximity assay (SPA) kit (TRKQ7100) from Amersham International (Little Chalfont, England). […]

In test [2] the target is T2, PDE2 (Bos taurus, UniProt P14099).
T2 construct: from tissue; host or cells: bovine myocardium
T2 sequence (P14099 1-921): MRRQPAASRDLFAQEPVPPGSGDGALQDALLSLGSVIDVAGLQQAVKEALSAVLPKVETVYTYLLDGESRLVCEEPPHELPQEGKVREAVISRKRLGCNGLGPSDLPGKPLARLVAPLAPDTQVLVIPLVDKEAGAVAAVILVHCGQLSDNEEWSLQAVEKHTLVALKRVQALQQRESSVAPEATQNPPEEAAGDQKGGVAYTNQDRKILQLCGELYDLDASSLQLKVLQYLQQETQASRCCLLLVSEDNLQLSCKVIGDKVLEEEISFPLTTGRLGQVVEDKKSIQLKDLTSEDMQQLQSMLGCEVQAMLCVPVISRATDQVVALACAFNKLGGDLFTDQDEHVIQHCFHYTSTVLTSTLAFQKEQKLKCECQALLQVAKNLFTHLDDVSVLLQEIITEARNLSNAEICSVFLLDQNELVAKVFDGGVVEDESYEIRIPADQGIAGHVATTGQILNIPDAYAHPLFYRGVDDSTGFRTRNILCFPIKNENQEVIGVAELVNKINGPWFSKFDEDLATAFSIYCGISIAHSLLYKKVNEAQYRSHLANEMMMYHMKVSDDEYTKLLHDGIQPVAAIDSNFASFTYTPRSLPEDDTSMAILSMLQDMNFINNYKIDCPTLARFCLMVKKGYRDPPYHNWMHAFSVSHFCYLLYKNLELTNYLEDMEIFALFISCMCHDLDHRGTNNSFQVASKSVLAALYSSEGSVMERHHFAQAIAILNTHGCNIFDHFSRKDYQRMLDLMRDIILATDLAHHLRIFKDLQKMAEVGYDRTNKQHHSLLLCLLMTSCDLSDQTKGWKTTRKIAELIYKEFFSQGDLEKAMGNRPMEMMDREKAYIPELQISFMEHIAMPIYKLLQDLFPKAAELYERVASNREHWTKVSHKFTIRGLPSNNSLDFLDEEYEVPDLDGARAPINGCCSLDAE
The experiment in a line: PDE inhibition, cGMP-stimulated PDE2 from bovine myocardium. In kind it is biochemical.
Description: as §1
The enzymatic activity is determined in an assay mixture of 100 μl in 20 mM Tris/HCl buffer pH 7.5 which contains 5 mM MgCl2, 0.1 mg/ml bovine serum albumin and 800 Bq of either [^3H]-cAMP or [^3H]-cGMP. The final concentration of the respective nucleotides is 10^−6 mol/l. […] 100 μl of the reaction mixture are separated by HPLC, and the cleavage products are determined quantitatively on line using a flow scintillation counter. The substance concentration at which the reaction rate is reduced by 50% is measured. […]
Test substances are dissolved in 100% DMSO (10 mM), and this solution is diluted further with H2O (maximum final concentration in the assay: 10 μM). […] After the beads have settled out (about 15 min), the plate is measured in a beta counter.

The next test addresses T3, PDE3B (Homo sapiens, UniProt Q13370).
T3 construct: made in house; host or cells: Sf9 cells, pFASTBAC baculovirus expression system (Gibco BRL)
Briefly: PDE inhibition, human recombinant PDE3B, [3H]cAMP SPA. In kind it is biochemical. The method, then: (§4) Human recombinant PDE2 (Rosman et al. Gene 1997 191, 89–95), PDE3B (Miki et al. Genomics 1996 36, 476–485), PDE4B (Bolger et al. Mol. Cell. Biol. 1993 13, 6558–6571) and PDE7B (Hetman et al. Proc. Natl. Acad. Sci. U.S.A. 2000 97, 472–476) are expressed in Sf9 cells with the aid of the pFASTBAC baculovirus expression system (Gibco BRL).
(§5) The activity of the test substances on human recombinant PDE2, PDE3B, PDE4B and PDE7B is determined using the [^3H]cAMP scintillation proximity assay (SPA) kit (TRKQ7090) from Amersham International (Little Chalfont, England) and on PDE1 and PDE5 using the [^3H]cGMP scintillation proximity assay (SPA) kit (TRKQ7100) from Amersham International (Little Chalfont, England).
(§6) Test substances are dissolved in 100% DMSO (10 mM), and this solution is diluted further with H2O (maximum final concentration in the assay: 10 μM). The PDE2 is prestimulated by adding cGMP (final concentration in the assay: 10^−6 M). The enzyme is diluted in PDE buffer (20 mM TRIS/HCl, 5 mM MgCl2, 0.1 mg/ml albumin, pH 7.5). […] After the beads have settled out (about 15 min), the plate is measured in a beta counter.
(§7) Calmodulin 10^−7 M and CaCl2 1 μM are added to the reaction mixture for the PDE1 measurement. PDE5 is measured using the [^3H] cGMP SPA assay. PDE3B, PDE4B and PDE7B are measured using the [^3H] cAMP scintillation proximity assay.

The target in the next test is T4, PDE4B (Homo sapiens, UniProt Q07343).
T4 construct: made in house; host or cells: Sf9 cells, pFASTBAC baculovirus expression system (Gibco BRL)
The experiment in a line: PDE inhibition, human recombinant PDE4B, [3H]cAMP SPA. The class given is biochemical. The procedure: as §4, §5, §6, §7

The next test has as its target T5, PDE5 (Homo sapiens, UniProt O76074).
T5 construct: from tissue; host or cells: human blood platelets (inferred; b27 also lists porcine small intestine, porcine aorta and, preferably, bovine aorta)
Briefly: PDE inhibition, PDE5, [3H]cGMP SPA. The class given is biochemical.
Description: as §1, §2, §3

The target of the next test is T6, PDE7B (Homo sapiens, UniProt Q9NP56).
T6 construct: made in house; host or cells: Sf9 cells, pFASTBAC baculovirus expression system (Gibco BRL)
Briefly: PDE inhibition, human recombinant PDE7B, [3H]cAMP SPA. The class given is biochemical. The procedure:
as §4, §5, §6, §7

The test system of test [3] is primary mouse (E18) cortex cultures. Briefly: Increasing the intracellular neuronal cGMP concentration in cell cultures. In kind it is cell-based. The following applies: 100 nM Example 1, parallel incubation with 100 µM SNP, 20 min, 37° C., mouse cortical neurons. The method, then: PDE 2 inhibitors increase the intracellular neronal cGMP concentration after prestimulation of guanylate cyclase with 10^−4 M sodium nitroprusside (SNP) in primary mouse brain cell cultures.
Mouse embryos were decapitated and the heads were transferred into dissection dishes. The scalp and roof of the skull were removed, and the exposed brains were transferred into another Petri dish. Using a binocular microscope and two forceps, the cerebrum (cortex) was isolated and cooled to 4° C. with ice. This dissection and the isolation of the cortical neurons were then carried out in accordance with a standard protocol with the papain dissociation system (Worthington Biochemical Corporation, Lakewood, N.J. 08701, USA) (Huettner et al. J. Neurosci. 1986, 6, 3044–3060.). […] The cells were then lysed with 200 μl lysis buffer (cGMP kit code RPN 226; from Amersham Pharmacia Biotech.) and cGMP concentration was measured as stated by the manufacturer. […]
Cells were treated with […] SNP (0) or with […] SNP and Example 1 (1×10^−8 M; 5×10^−8 M; 1×10^−7 M; 5×10^−7 M; 1×10^−6 M) for 20 min. The intracellular cGMP level was then measured.

The next test concerns rats. The experiment in a line: Object recognition test. The class given is in vivo, rat. The following applies: second run 24 hours later. The method, then: The object recognition test is a memory test. It measures the ability of rats (and mice) to distinguish between familiar and unfamiliar objects.
The test was carried out as described (Blokland et al. NeuroReport 1998, 9, 4205–4208; Ennaceur, A., Delacour, J., Behav. Brain Res. 1988, 31, 47–59; Ennaceur, A., Meliani, K., Psychopharmacology 1992, 109, 321–330; Prickaerts, et al. Eur. J. Pharmacol. 1997, 337, 125–136).
In a first run, a rat is confronted in an otherwise empty observation arena of relatively large size by two identical objects. The rat will investigate, i.e. sniff round and touch, both objects extensively. In a second run, after an interval of 24 hours, the rat is put in the observation arena again. One of the familiar objects has now been replaced by a new, unfamiliar object. If a rat recognizes the familiar object, it will concentrate on investigating the unfamiliar object. However, after 24 hours, a rat has normally forgotten which object it investigated in the first run, and it will therefore inspect both objects to the same extent. Administration of a substance with a learning- and memory-improving effect will lead to a rat recognizing the object seen in the first run 24 hours previously as familiar. It will investigate the new, unfamiliar object in more detail than the familiar one. This memory ability is expressed in a discrimination index. A discrimination index of zero means that the rat investigates both objects, the old and the new, for equal times; that is to say it has not recognized the old object and reacts to both objects as if they were unfamiliar and new.
The effects of Example 1 on object recognition by rats 24 hours after the first run were investigated. The animals received Tylose alone, or Example 1 in dosages of 0.3, 1.0 or 3.0 mg/kg of body weight suspended in Tylose, orally, immediately following the first run with two identical objects. […] After a washout period of 2 or 3 days, a new dosage of Example 1 was tested in the same rats, until the memory capacity of all the rats had been measured twice with all the dosages. […]

Test [4] addresses T1, PDE2. Briefly: PDE inhibition, human recombinant PDE2, [3H]cAMP SPA. More on the design: made in house; host or cells: Sf9 cells, pFASTBAC baculovirus expression system (Gibco BRL). In kind it is biochemical. The method, then:
as §4, §5, §6

Like-named read-outs stand apart in the source and are kept apart here.

T1 sequence (O00408 whole entry): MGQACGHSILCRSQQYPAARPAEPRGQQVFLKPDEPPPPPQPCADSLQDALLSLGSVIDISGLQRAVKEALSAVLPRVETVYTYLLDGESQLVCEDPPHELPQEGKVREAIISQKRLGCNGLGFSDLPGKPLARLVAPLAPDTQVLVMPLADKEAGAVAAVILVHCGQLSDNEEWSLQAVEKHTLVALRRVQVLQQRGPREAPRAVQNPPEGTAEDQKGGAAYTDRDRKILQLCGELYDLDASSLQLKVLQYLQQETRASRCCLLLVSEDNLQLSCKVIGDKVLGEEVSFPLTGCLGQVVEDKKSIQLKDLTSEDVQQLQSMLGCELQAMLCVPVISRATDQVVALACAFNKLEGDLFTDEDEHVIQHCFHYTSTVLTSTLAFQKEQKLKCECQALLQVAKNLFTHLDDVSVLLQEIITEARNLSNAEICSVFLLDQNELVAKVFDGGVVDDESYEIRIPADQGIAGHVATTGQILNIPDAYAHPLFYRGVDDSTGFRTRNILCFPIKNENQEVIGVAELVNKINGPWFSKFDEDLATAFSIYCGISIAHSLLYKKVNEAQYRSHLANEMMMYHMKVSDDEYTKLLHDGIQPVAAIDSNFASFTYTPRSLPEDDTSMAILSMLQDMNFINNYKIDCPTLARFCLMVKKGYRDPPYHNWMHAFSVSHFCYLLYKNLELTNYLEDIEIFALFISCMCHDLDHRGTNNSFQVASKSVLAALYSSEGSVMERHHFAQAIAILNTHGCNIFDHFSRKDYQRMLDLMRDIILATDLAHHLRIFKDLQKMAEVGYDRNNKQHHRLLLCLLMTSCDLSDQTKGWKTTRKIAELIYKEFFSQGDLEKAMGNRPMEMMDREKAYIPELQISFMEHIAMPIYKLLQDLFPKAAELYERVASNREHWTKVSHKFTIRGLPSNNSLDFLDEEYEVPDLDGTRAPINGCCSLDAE
T3 sequence (Q13370 whole entry): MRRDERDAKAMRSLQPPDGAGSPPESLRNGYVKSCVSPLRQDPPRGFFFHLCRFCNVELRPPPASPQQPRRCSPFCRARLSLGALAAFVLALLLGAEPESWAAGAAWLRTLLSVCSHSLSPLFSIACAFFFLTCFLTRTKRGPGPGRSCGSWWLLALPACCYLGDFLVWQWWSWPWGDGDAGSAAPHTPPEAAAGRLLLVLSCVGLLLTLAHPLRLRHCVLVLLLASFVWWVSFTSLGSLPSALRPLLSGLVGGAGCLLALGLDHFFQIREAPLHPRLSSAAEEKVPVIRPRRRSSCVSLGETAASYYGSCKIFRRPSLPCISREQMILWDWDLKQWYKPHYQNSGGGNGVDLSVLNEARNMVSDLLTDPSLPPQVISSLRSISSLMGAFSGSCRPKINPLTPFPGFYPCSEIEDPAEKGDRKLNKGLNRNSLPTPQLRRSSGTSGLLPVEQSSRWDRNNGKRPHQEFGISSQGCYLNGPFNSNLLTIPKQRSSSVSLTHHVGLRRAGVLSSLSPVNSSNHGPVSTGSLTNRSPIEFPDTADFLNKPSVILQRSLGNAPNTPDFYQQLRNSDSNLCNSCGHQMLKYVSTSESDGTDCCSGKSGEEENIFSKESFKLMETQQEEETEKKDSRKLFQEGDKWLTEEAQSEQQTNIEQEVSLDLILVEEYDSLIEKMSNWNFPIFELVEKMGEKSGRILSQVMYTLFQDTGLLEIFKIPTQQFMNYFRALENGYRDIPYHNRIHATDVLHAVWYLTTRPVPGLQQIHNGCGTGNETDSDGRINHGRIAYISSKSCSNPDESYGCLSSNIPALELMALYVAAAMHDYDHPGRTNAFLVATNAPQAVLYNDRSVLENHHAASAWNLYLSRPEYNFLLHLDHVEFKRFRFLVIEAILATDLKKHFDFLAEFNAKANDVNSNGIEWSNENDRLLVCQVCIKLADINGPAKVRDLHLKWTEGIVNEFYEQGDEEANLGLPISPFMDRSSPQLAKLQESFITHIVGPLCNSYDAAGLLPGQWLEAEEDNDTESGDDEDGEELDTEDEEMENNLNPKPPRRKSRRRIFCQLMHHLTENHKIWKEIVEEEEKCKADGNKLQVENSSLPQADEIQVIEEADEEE
adenosine deaminase, sequence (P00813 whole entry, species assumed): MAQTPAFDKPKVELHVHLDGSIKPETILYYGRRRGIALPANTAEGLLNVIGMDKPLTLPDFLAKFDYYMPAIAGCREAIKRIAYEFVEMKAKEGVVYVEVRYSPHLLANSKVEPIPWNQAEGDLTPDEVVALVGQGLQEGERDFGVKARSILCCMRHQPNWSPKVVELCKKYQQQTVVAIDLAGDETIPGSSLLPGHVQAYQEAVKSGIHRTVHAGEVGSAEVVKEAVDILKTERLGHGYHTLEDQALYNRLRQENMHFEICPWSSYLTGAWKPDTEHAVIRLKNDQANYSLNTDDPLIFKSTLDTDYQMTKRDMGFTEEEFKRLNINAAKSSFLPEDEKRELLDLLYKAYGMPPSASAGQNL
T4 sequence (Q07343 whole entry): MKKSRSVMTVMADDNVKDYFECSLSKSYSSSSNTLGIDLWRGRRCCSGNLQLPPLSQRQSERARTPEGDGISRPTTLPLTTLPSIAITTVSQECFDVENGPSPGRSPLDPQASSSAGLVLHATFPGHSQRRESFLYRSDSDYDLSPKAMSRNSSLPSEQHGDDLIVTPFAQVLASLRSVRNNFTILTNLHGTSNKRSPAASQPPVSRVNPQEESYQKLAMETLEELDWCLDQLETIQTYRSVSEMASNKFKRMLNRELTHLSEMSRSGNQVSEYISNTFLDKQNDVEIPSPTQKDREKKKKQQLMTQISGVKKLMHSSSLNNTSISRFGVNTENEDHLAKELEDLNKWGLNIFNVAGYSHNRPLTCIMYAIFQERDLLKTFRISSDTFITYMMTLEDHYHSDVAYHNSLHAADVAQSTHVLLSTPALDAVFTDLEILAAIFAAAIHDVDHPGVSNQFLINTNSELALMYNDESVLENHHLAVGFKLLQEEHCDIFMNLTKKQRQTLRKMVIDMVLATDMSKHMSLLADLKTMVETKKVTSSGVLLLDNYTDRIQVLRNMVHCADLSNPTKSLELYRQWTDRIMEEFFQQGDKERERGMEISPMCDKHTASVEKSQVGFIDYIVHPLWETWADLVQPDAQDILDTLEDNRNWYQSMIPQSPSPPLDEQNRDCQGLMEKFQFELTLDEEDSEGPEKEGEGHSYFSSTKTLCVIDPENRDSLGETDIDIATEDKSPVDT
T6 sequence (Q9NP56 whole entry): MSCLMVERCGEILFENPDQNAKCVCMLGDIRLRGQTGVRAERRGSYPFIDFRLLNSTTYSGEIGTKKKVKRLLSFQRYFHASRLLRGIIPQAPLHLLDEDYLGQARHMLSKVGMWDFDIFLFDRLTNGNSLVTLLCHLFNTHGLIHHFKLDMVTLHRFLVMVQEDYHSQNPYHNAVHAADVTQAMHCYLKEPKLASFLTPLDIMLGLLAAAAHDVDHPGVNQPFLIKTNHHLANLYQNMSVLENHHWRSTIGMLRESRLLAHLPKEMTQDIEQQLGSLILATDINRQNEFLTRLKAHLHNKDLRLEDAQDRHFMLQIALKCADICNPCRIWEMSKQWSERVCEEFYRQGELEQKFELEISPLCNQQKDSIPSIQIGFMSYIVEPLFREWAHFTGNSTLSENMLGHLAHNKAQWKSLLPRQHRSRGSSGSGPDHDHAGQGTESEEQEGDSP

In the case of `CCCCCCC(C(C)O)n1cnc2c(N)ncnc21` (stereo not drawn) [EHNA, erythro-9-(2-hydroxy-3-nonyl)adenine], the IC50 at PDE2 [1] was 1 µM; at adenosine deaminase, 0.003 µM.

Take `COc1ccc(Cc2nc3c(c(C)nn3C(CCCc3ccccc3)C(C)O)c(=O)[nH]2)cc1OC` (stereo not shown) [Example 1, 6-(3,4-dimethoxybenzyl)-1-[1-(1-hydroxyethyl)-4-phenylbutyl]-3-methyl-1,5-dihydropyrazolo[3,4-d]pyrimidin-4-one]: the IC50 was 0.2 µM in the test on PDE1; 0.007 µM at PDE2 [2]; over 4 µM on PDE3B; 2.9 µM on PDE4B; 0.3 µM at PDE5; 1.6 µM at PDE7B. The half-inhibitory concentration (IC50) on PDE2 [4] turned out to be 0.006 µM. In test [3], the “intracellular cGMP level” value is recorded as “distinct increase”. For the same compound, the “memory capacity in the second run compared with control (Tylose alone)” value with rats (0.3 mg/kg orally immediately after the first run) and with rats (1.0 mg/kg orally immediately after the first run) was “improved” throughout. In addition, in the test with rats (0.3 and 1.0 mg/kg orally), the “discrimination index (d2)” value is on record as “greater than zero”.
